Reference: patent publication US20200239587A1, “SENSITIZATION OF TUMORS TO THERAPIES THROUGH ENDOGLIN ANTAGONISM” (Cedars-Sinai Medical Center, priority 2016, published 2020)
Entries after “also recorded” stand apart in the source; their conditions may differ.

What was measured:
[1] = test system: ID1 mRNA expression by Rv1 cells and mouse wild-type fibroblasts; assay: Species specificity of CD105 antagonists, BMP-induced ID1 mRNA; type: cell-based, human; details: 1 μg/ml; BMP 50 ng/mL, 6 hours
Method: All cells were pre-treated overnight in serum free media, then incubated with BMP (50 ng/mL) in the presence or absence of differing concentrations of concentrations of TRC105 or M1043 for 6 hours (mean+/−SD). Within each group, the left column depicts human PCa and right column depicts mouse fibroblasts.
(§1) Total RNA was extracted using the RNeasy kit (Qiagen). 1 μg RNA was used for cDNA synthesis using iSCRIPT cDNA synthesis kit (1708891, Bio-Rad). Quantitative RT-PCR was performed with 5 replicates using the Step One Real-Time PCR system (Applied Biosystems). Gene mRNA expression was normalized to GAPDH. Primer sequences can be found in the Table 1. For RNA-sequencing, Ion Proton AmpliSeq Transcriptome RNA Sequencing was performed achieving an average of 3M reads. We mapped an average of 88% of the reads to the human genome with Torrent Suite version 4.4.2.

HPAF-II = assay: Clonogenic survival assay with radiation; type: cell-based, human; details: p53 mutant pancreatic cancer cell line
Method: (§2) Assays were performed on cell lines with p53 null prostate cancer cell line, FIG. 23A) PC3 and two p53 mutant pancreatic cancer cell lines, FIG. 23B) MIAPACA-2 and FIG. 23C) HPAF-II with indicated doses of radiation. Breast cancer cell lines with intact p53, FIG. 23D) MCF7 and mutant yet functional p53, FIG. 23E) MDA-MB23 were however radio-sensitized by the 1 μg/ml TRC105.

MCF7 = assay: Clonogenic survival assay with radiation; type: cell-based, human; details: breast cancer cell line with intact p53; 1 μg/ml TRC105
Method: as §2

MDAMB231 = assay: Clonogenic survival assay with radiation; type: cell-based, human; details: breast cancer cell line with mutant yet functional p53; 1 μg/ml TRC105
Method: as §2

MIAPACA-2 = assay: Clonogenic survival assay with radiation; type: cell-based, human; details: p53 mutant pancreatic cancer cell line
Method: as §2

PC3 = assay: Clonogenic survival assay with radiation; type: cell-based, human; details: p53 null prostate cancer cell line
Method: as §2

[2] = test system: SIRT1 transcription in CW22Rv1; assay: BMP dependent SIRT1 mRNA expression; type: cell-based, human; details: 50 ng/ml BMP4, serum free; TRC105 0.05-10 μg/ml
Method: FIG. 20A) Western blot for SIRT1 expression measured in 22Rv1 cells following serum starvation and treatment with 50 ng/ml BMP4 for 4 hours. Phosphorylated Smad1/5 and β-actin was measured concurrently. FIG. 20B) SIRT1 mRNA expression was measured in CW22Rv1 under serum free conditions with 50 ng/ml BMP4, IgG in the context of increasing doses of TRC105 (0.05, 0.1, 0.5, 1, 5, or 10 μg/ml). SIRT1 mRNA expression was normalized to GAPDH and to serum treated control. FIG. 20C) Fold Change of SIRT1 mRNA in benign prostate and prostate cancer patients, obtained from R2-Genomics analysis is expressed (n=95). FIG. 20D) Immunohistochemical localization for SIRT1 expression in benign and prostate cancer tissues is indicated by arrows (Human Protein Atlas). […] FIG. 20E) SIRT1 mRNA expression was measured 72 hours following irradiation of 22Rv1 in a dose range of 0-6 Gy. FIG. 20F) SIRT1 mRNA expression was measured in a time course 0-72 hours following 4 Gy irradiation. […]
as §1, with “1 μg RNA was used for cDNA synthesis using iSCRIPT cDNA synthesis kit (1708891, Bio-Rad).” left out, “Gene mRNA expression was normalized to GAPDH. Primer sequences can be found in the Table 1.” left out

[3] = test system: survivin and full length PARP1 in CW22Rv1; assay: Survival proteins after radiation and TRC105; type: cell-based, human; details: 4Gy radiation and TRC105, 5 days
[4] = test system: NRF1, MTFA, and CPT1C in 22Rv1 cells; assay: mRNA expression of PGC1α target genes; type: cell-based, human; details: radiation vs radiation plus TRC105; p<0.001
Method: FIGS. 24A-24D depict that PGC1α and mitochondrial biogenesis are regulated by BMP/CD105. 22Rv1 cells were incubated with IgG or TRC105 with or without 4 Gy irradiation. All measurements were made 72 hours post radiation. FIG. 24A) Western blot for whole cell lysate, nuclear and cytoplasmic fractions were independently analyzed for PGC1α expression. Loading controls included β-actin (whole cell), lamin B (nuclear marker), and Rho A (cytoplasm marker). FIG. 24B) Immunofluorescent localization of PGC1α was visualized with DAPI nuclear counterstain. FIG. 24C) mRNA expression of PGC1α target genes, NRF1, MTFA, and CPT1C was measured. mRNA expression was normalized to GAPDH and untreated IgG 0 Gy. FIG. 24D) Mitochondrial DNA (mtDNA) was measured from total DNA extracts and normalized to nuclear DNA and compared to untreated IgG 0 Gy. Data are reported as means+/−S.D. of 3 independent experiments. (***p<0.001, ****p<0.0001).
as §1, with “Gene mRNA expression was normalized to GAPDH. Primer sequences can be found in the Table 1.” left out

CW22Rv1 xenograft model = assay: Subcutaneous CW22Rv1 xenograft with radiation; type: in vivo, mice
Method: Tumor volumes were longitudinally measured. When tumor average volume reached […] mice were treated with IgG or TRC105 in the context of radiation (2 Gy for 5 days). Tumors were harvested 15 days after the first dose of radiation. FIG. 28A) Tumor volume fold change was normalized to the first dose of radiation (day 1, ***p<0.001). FIG. 28B) Each treatment was compared for doubling of tumor volume as a function of time as depicted in the cumulative incidence plot.
The inventors assessed CD105 dependent radio-resistance using a CW22Rv1 xenograft model. Mice engrafted with subcutaneous CW22Rv1 were given one dose of IgG or TRC105 72 hours prior to radiation and subsequently 3 times a week for the duration of radiation treatment. The irradiated IgG and irradiated TRC105 groups were given a radiation dosage of 2Gy for 5 consecutive days. Fold change in tumor volume was calculated for each group (FIG. 28A).

[5] = test system: androgen receptor variants and RNPC1; assay: Androgen receptor variants and RNPC1 expression; type: cell-based

Substance: TRC105: partially humanized monoclonal antibody that blocks BMP signaling; human-specific CD105 (endoglin) neutralizing antibody from Tracon Pharmaceuticals
- cross-species reactivity [1]: no cross-species reactivity
- radiation sensitivity, clonogenic response (HPAF-II): neither the HPAF-II nor MIAPACA-2 cell lines treated with radiation showed a change in clonogenic response
- radiation sensitivity, clonogenic survival (MCF7): positively sensitized to irradiation; also recorded: radio-sensitized
- radiation sensitivity, clonogenic survival (MDAMB231): positively sensitized to irradiation; also recorded: radio-sensitized
- radiation sensitivity, clonogenic response (MIAPACA-2): neither the HPAF-II nor MIAPACA-2 cell lines treated with radiation showed a change in clonogenic response
- radiation sensitivity, clonogenic survival (PC3): no evidence of radiation sensitization
- BMP dependent induction of SIRT1 transcription [2]: down-regulated when CD105 was antagonized with TRC105 in a dose dependent manner
- survival proteins (survivin and full length PARP1) [3]: precipitous down regulation of survival proteins
- mRNA expression of NRF1, MTFA, and CPT1C [4]: significantly increased with radiation compared to that in the presence of TRC105
- tumor volume (CW22Rv1 xenograft model; TRC105 alone compared to untreated): did not influence tumor volume
- tumor doubling time (CW22Rv1 xenograft model; TRC105 with irradiation vs either treatment alone): appreciably inhibited
- tumor volume (CW22Rv1 xenograft model; radiation (2Gy for 5 days) and TRC105, p<0.001): significantly lower than the other three experimental groups
- RNPC1 (RBM38) expression ([5]; TRC105): down regulated
- androgen receptor variants expression ([5]; TRC105): down regulated; also recorded: down-regulated
- Notch and IL-6 mediated ARv expression ([5]; antagonizing endoglin): down regulate Notch and IL-6 mediated ARv expression
